Source: US20210078932A1, “3,4-DIHYDROXYPHENETHYL 3-HYDROXYBUTANOATE, PREPARATION AND USE THEREOF” (XI'AN JIAOTONG UNIVERSITY, priority 2019, published 2021)

Columns and labels:
[1] = tested on: rats with brain fatigue; experiment: Open field test in sleep-deprivation brain fatigue rat model; format: in vivo, SD rats; settings: for amelioration of manic mood of the rats with brain fatigue: overall conclusion after administration; for average moving speed / number of movements: sleep-deprived rats, drug intragastrically daily, compared with brain fatigue group; for average moving speed: FIG. 2A; for number of movements: FIG. 2B
Method: (§1) 8-week-old adult male SD rats (body weight: 250 g) purchased from Experimental Animal Center of The Second Military Medical University in Shanghai were used in the experiments. The rats were kept in an animal room with controlled temperature (22° C. to 28° C.) and humidity (60%). The light of the room was maintained in a 12 h/12 h day/night light cycle. The rats were able to eat and drink freely during the experiments. A brain fatigue rat model was established by using the sleep deprivation method in the experiments. The experimental rats were divided into five groups, with 10 rats in each group.
The five groups are as follows: (1) a normal feeding group with normal saline intragastrically administered daily (hereinafter referred to as the control group); (2) a brain fatigue model group established by the sleep deprivation method, with normal saline intragastrically administered daily (hereinafter referred to as the brain fatigue group); (3) a brain fatigue model group established by the sleep deprivation method, with 35 mg/kg of hydroxytyrosol acetate intragastrically administered daily (hereinafter referred to as HTac group, as shown in the following table); (4) a brain fatigue model group established by the sleep deprivation method, with 23.6 mg/kg of […] intragastrically administered daily (hereinafter referred to as HBET group, as shown in the following table); (5) a brain fatigue model group established by the sleep deprivation method, with 42.9 mg/kg of hydroxytyrosol hydroxybutyrate intragastrically administered daily (hereinafter referred to as HTHB group, as shown in Table 1).
The rats were preconditioned in the animal room for one week, during which the drugs were intragastrically administered. From the second day of the acquisition training of the water maze experiment, the rats other than the control group were started to be subjected to the small-platform-over-water sleep deprivation to establish the brain fatigue stress model. The sleep deprivation apparatus was mainly composed of two parts: a water tank and a platform disposed in the tank. The tank was filled with water. The size of the platform can only for the hind legs of the rat to stand. The platform was fixed to the bottom of the tank, and the top surface of the platform is above the water surface. The rat was placed on the platform for sleep deprivation. Once the rat fell asleep, its muscle tension would decrease and its center of gravity would move forward, which would cause the rat to fall into the water and suddenly be awakened. In order to avoid this, the rat must keep a slight grip on the edge of the platform, which deprived the sleep of the rat and caused brain fatigue.
The open field test is a classic behavioral test to evaluate emotion of rodents, which is based on the principle that the rodents have instincts to fear an open field and have spontaneous phobotaxis activities. Abnormalities in phobotaxis can indicate emotional abnormalities of rodents. The apparatus of the open field test was mainly composed of a black PVC box and a video tracking system. The box was 80 cm in both length and width and 50 cm in height. A camera of the video tracking system was hung at a height of 1.5 meters from the bottom of the box. The rat can move freely in the open field box, and the camera facing the box recorded the movements of the rat. By using the video tracking system, the interior of the box was divided into 16 squares arranged in 4×4 matrix, in which 12 surrounding squares were defined as a surrounding area, and 4 internal squares were defined as a central area, respectively.
The open field test follows the last day of the water maze experiment. After the water maze experiment, each rat was put back into the cage and rested for 10 minutes. Then in the open field test, the rat was placed at the center of the box bottom in a quiet environment, and was video recorded by the camera for 5 minutes, after which the rat was removed from the box. […]

[2] = tested on: rats with brain fatigue; experiment: Morris water maze experiment (exploration test) in sleep-deprivation brain fatigue rat model; format: in vivo, SD rats
Method: as §1, with “group. […]” for “group.”

Compound | amelioration of manic mood of the rats with brain fatigue [1] | average moving speed [1] | improvement of learning and memory abilities of the rats with brain fatigue ([2]; overall conclusion, compared with hydroxytyrosol acetate and ethyl β-hydroxybutyrate) | swimming time in the quadrant IV (percentage) ([2]; sleep-deprived rats, drug intragastrically daily, compared with brain fatigue group, FIG. 1A) | amelioration of manic mood compared with hydroxytyrosol acetate and ethyl β-hydroxybutyrate ([1]; overall comparison, in some indicators) | number of movements [1]
CCOC(=O)CC(C)O (stereo not drawn) [HBET, ethyl β-hydroxybutyrate] | significantly ameliorated to certain degrees | significantly different |  |  |  | 
CC(O)CC(=O)OCCc1ccc(O)c(O)c1 (centres unmarked) [HTHB, 3,4-dihydroxyphenethyl 3-hydroxybutanoate] | significantly ameliorated to certain degrees | significantly different | more obviously improved the learning and memory abilities | significantly different | better amelioration of manic mood | significantly different
hydroxytyrosol acetate [HTac] | significantly ameliorated to certain degrees | significantly different |  |  |  | significantly different
